Laboratory results taken from patent US12122761B2, “2-azaspiro[3.4]octane derivatives as M4 agonists” (NOVARTIS AG, priority 2019, dated 2024).

Legend:
[1] = target: T1, Cloned human M1 receptor (CHRM1) stably expressed in HEK293 cells (Homo sapiens, UniProt P11229); experiment: CHRM1 Ca++ Flux Assay (agonist mode, FDSS 7000EX); format: cell-based; settings: for M1 FDSS PA: Percent Activity; for EC50: geometric mean if tested more than once; for Emax: HEK293, Percent Activity, read-out: M1 FDSS PA
T1 construct: expressed in transfected cells; host or cells: HEK293
T1 sequence (P11229 1-460): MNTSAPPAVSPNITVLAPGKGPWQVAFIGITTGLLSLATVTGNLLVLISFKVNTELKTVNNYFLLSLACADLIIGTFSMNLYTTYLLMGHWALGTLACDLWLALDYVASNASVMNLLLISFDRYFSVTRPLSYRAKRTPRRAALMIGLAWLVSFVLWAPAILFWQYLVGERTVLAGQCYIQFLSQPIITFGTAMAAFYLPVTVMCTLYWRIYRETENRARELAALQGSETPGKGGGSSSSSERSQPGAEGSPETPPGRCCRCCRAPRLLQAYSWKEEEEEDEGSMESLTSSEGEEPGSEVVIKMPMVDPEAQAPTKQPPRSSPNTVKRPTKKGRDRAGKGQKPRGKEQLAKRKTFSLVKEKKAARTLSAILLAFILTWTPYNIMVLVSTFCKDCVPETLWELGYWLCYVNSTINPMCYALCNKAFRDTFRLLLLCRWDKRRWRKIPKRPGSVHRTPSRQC
Outline: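 Compounds tested as agonists at 11 concentrations in triplicate, with calcium traces captured over 3 minutes. Cells were HEK293 with stable human CHRM1 expression, plated overnight at 25K/well and loaded with calcium dye. Responses normalized to carbachol EC100 and fitted by four-parameter nonlinear regression.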

[2] = target: T2, human cloned CHRM4 receptor (M4_CHO cells) (Homo sapiens, UniProt P08173); experiment: CHRM4 Ca++ Flux Assay (agonist mode, FDSS 7000EX); format: cell-based; settings: for M4 FDSS PA / Emax: Percent Activity; for EC50: geometric mean if tested more than once, read-out: M4 FDSS EC50; for Emax: read-out: M4 FDSS PA
T2 construct: expressed in transfected cells; host or cells: CHO-K1
T2 sequence (P08173 1-479): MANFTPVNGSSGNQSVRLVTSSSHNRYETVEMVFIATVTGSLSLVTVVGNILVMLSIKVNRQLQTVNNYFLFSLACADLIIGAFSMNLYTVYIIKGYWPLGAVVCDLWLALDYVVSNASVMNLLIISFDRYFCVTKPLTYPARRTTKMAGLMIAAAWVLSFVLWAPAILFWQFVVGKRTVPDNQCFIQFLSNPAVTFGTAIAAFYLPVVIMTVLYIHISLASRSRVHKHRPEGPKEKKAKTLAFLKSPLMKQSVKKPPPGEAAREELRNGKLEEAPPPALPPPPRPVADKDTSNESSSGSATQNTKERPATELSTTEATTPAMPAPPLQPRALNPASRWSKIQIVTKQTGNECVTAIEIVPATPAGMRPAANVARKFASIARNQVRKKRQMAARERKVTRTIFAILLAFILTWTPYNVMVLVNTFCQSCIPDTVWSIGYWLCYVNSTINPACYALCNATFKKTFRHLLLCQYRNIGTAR
Outline: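 Agonist-mode response was expressed as percent of the Carbachol EC100 and fitted with four-parameter nonlinear regression over an 11-point triplicate dose series. Intracellular Ca++ was tracked for 3 min by fluorescent dye in CHO-K1 cells stably expressing human CHRM4. Cells were preincubated 60 min with 20 μM ATP in buffer containing 2.5 mM probenecid.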

Compound | M1 FDSS PA [1] [%] | EC50 [1] [nM] | M4 FDSS PA [2] [%] | EC50 [2] [nM] | Emax [1] [%] | Emax [2] [%]
O=C(N1CC2(CC[C@@H](N3CCC(c4cc(F)ccc4OC4CC5(COC5)C4)CC3)C2)C1)C1(F)CC1 (single isomer, unassigned) [Example 11A, (R)-(6-(4-(2-((2-oxaspiro[3.3]heptan-6-yl)oxy)-5-fluorophenyl)piperidin-1-yl)-2-azaspiro[3.4]octan-2-yl)(1-fluorocyclopropyl)methanone or (S)-(6-(4-(2-((2-oxaspiro[3.3]heptan-6-yl)oxy)-5-fluorophenyl)piperidin-1-yl)-2-azaspiro[3.4]octan-2-yl)(1-fluorocyclopropyl)methanone] | 9 | > 25000 | 45 | 38 |  | 
O=C(N1CC2(CC[C@@H](N3CCC(c4cc(F)ccc4OC4CC5(COC5)C4)CC3)C2)C1)C1(F)CC1 (single isomer, unassigned) [Example 11B, (R)-(6-(4-(2-((2-oxaspiro[3.3]heptan-6-yl)oxy)-5-fluorophenyl)piperidin-1-yl)-2-azaspiro[3.4]octan-2-yl)(1-fluorocyclopropyl)methanone or (S)-(6-(4-(2-((2-oxaspiro[3.3]heptan-6-yl)oxy)-5-fluorophenyl)piperidin-1-yl)-2-azaspiro[3.4]octan-2-yl)(1-fluorocyclopropyl)methanone] | 9 | 30 | 51 | 2 |  | 
O=C(N1CC2(CC[C@@H](N3CCC(c4ccccc4OC4CC5(COC5)C4)CC3)C2)C1)C1(F)CC1 (single isomer, unassigned) [Example 11C, (R)-(6-(4-(2-((2-oxaspiro[3.3]heptan-6-yl)oxy)phenyl)piperidin-1-yl)-2-azaspiro[3.4]octan-2-yl)(1-fluorocyclopropyl)methanone or (S)-(6-(4-(2-((2-oxaspiro[3.3]heptan-6-yl)oxy)phenyl)piperidin-1-yl)-2-azaspiro[3.4]octan-2-yl)(1-fluorocyclopropyl)methanone] | 1 | > 25000 | 47 | 2 |  | 
O=C(N1CC2(CC[C@@H](N3CCC(c4ccccc4OC4CC5(COC5)C4)CC3)C2)C1)C1(F)CC1 (single isomer, unassigned) [Example 11D, (R)-(6-(4-(2-((2-oxaspiro[3.3]heptan-6-yl)oxy)phenyl)piperidin-1-yl)-2-azaspiro[3.4]octan-2-yl)(1-fluorocyclopropyl)methanone or (S)-(6-(4-(2-((2-oxaspiro[3.3]heptan-6-yl)oxy)phenyl)piperidin-1-yl)-2-azaspiro[3.4]octan-2-yl)(1-fluorocyclopropyl)methanone] | 1 | > 25000 | 38 | 97 |  | 
Fc1ccc(OC2CC3(COC3)C2)c(C2CCN([C@@H]3CCC4(C3)CN(c3nnco3)C4)CC2)c1 [Example 1B, (R)-2-(6-(4-(2-((2-oxaspiro[3.3]heptan-6-yl)oxy)-5-fluorophenyl)piperidin-1-yl)-2-azaspiro[3.4]octan-2-yl)-1,3,4-oxadiazole] |  | 322 |  | 1 | 48 | 69
c1ccc(C2CCN([C@@H]3CCC4(C3)CN(c3nnco3)C4)CC2)c(OC[C@H]2COCCO2)c1 [Example 1C, 2-((R)-6-(4-(2-(((R)-1,4-dioxan-2-yl)methoxy)phenyl)piperidin-1-yl)-2-azaspiro[3.4]octan-2-yl)-1,3,4-oxadiazole] |  | 56 |  | < 0.4 | 85 | 75
Cc1coc(N2CC3(CC[C@@H](N4CCC(c5ccc(F)cc5OCC(C)(C)O)CC4)C3)C2)n1 [Example 3N, (R)-1-(5-fluoro-2-(1-(2-(4-methyloxazol-2-yl)-2-azaspiro[3.4]octan-6-yl)piperidin-4-yl)phenoxy)-2-methylpropan-2-ol] |  | > 25000 |  | > 25000 | 0 | 0
Cc1coc(N2CC3(CC[C@@H](N4CCC(c5ccccc5OCC(C)(C)O)CC4)C3)C2)n1 [Example 3O, (R)-2-methyl-1-(2-(1-(2-(4-methyloxazol-2-yl)-2-azaspiro[3.4]octan-6-yl)piperidin-4-yl)phenoxy)propan-2-ol] |  | > 25000 |  | > 25000 | 0 | 1
COc1ccccc1C1CCN([C@@H]2CCC3(C2)CN(c2ncon2)C3)CC1 [Example 4A, (R)-3-(6-(4-(2-methoxyphenyl)piperidin-1-yl)-2-azaspiro[3.4]octan-2-yl)-1,2,4-oxadiazole] |  | 15 |  | < 0.4 | 83 | 77
COc1ccccc1C1CCN([C@@H]2CCC3(C2)CN(c2cncnc2)C3)CC1 [Example 5A, (R)-6-(4-(2-methoxyphenyl)piperidin-1-yl)-2-(pyrimidin-5-yl)-2-azaspiro[3.4]octane] |  | 105 |  | 2 | 64 | 64
CC(C)(O)COc1ccccc1C1CCN([C@@H]2CCC3(C2)CN(c2cncnc2)C3)CC1 [Example 5B, (R)-2-methyl-1-(2-(1-(2-(pyrimidin-5-yl)-2-azaspiro[3.4]octan-6-yl)piperidin-4-yl)phenoxy)propan-2-ol] |  | 191 |  | 4 | 35 | 53
Cc1ncncc1N1CC2(CC[C@@H](N3CCC(c4ccccc4OCC(C)(C)O)CC3)C2)C1 [Example 5C, (R)-2-methyl-1-(2-(1-(2-(4-methylpyrimidin-5-yl)-2-azaspiro[3.4]octan-6-yl)piperidin-4-yl)phenoxy)propan-2-ol] |  | 420 |  | > 25000 | 69 | 6
COc1ccccc1C1CCN([C@@H]2CCC3(C2)CN(c2ccc(C)nc2)C3)CC1 [Example 5D, (R)-6-(4-(2-methoxyphenyl)piperidin-1-yl)-2-(6-methylpyridin-3-yl)-2-azaspiro[3.4]octane] |  | > 25000 |  | 156 | 0 | 36
COc1ccccc1C1CCN([C@@H]2CCC3(C2)CN(c2cnc(C)nc2)C3)CC1 [Example 5E, (R)-6-(4-(2-methoxyphenyl)piperidin-1-yl)-2-(2-methylpyrimidin-5-yl)-2-azaspiro[3.4]octane] |  | > 25000 |  | > 25000 | 0 | 2
COc1ccccc1C1CCN([C@@H]2CCC3(C2)CN(c2cncc(F)c2)C3)CC1 [Example 5F, (R)-2-(5-fluoropyridin-3-yl)-6-(4-(2-methoxyphenyl)piperidin-1-yl)-2-azaspiro[3.4]octane] |  | 3760 |  | 6 | 7 | 59
COc1ccccc1C1CCN([C@@H]2CCC3(C2)CN(c2cncc(C)n2)C3)CC1 [Example 5G, (R)-6-(4-(2-methoxyphenyl)piperidin-1-yl)-2-(6-methylpyrazin-2-yl)-2-azaspiro[3.4]octane] |  | > 25000 |  | > 25000 | 0 | 1
COc1ccccc1C1CCN([C@@H]2CCC3(C2)CN(c2cnccn2)C3)CC1 [Example 5H, (R)-6-(4-(2-methoxyphenyl)piperidin-1-yl)-2-(pyrazin-2-yl)-2-azaspiro[3.4]octane] |  | 48 |  | 1 | 50 | 61
COc1ccccc1C1CCN([C@@H]2CCC3(C2)CN(c2nccnc2C(F)(F)F)C3)CC1 [Example 5I, (R)-6-(4-(2-methoxyphenyl)piperidin-1-yl)-2-(3-(trifluoromethyl)pyrazin-2-yl)-2-azaspiro[3.4]octane] |  | 272 |  | 84 | 55 | 16
COc1ccccc1C1CCN([C@@H]2CCC3(C2)CN(c2nccnc2C)C3)CC1 [Example 5J, (R)-6-(4-(2-methoxyphenyl)piperidin-1-yl)-2-(3-methylpyrazin-2-yl)-2-azaspiro[3.4]octane] |  | 100 |  | 9 | 60 | 60
